Test results as given in patent US20090124587A1, “METHODS FOR TREATING CANCER USING 17alpha-HYDROXYLASE/C17,20-LYASE INHIBITORS” (priority 2007, published 2009).
Where two headings read alike, the source gives them in different places.

Assay: Food effect PK study, two single oral 1000 mg doses of abiraterone acetate, fed (high fat) vs fasted
Format: in vivo, human
Conditions: for clearance: read-out: Cl F obs (converted); for Vd/F: read-out: Vz F obs; for concentration at 1.017 h: sample time 1.017; for concentration at 6 h: sample time 6.000; for concentration at 2 h: sample time 2.000; for concentration at 4 h: sample time 4.000; for concentration at 8.033 h: sample time 8.033; for concentration at 24 h: sample time 24.000; for concentration at 48.083 h: sample time 48.083
Procedure: To measure the amount of abiraterone and abiraterone acetate in the samples, these compounds were extracted from 100 uL human plasma using solid phase extraction (SPE) with cation mixed-mode polymer cartridges. Extracts were evaporated to dryness before reconstitution and analysis. Chromatography was carried out using a Luna™ C5 column (5 μm, 50 mm×2.1 mm id) with a gradient mobile phase consisting of 10 mM ammonium acetate and 2% propan-2-ol in acetonitrile. The flow rate was 0.2 mL/min and the run time 10.5 minutes. Abiraterone and abiraterone acetate were ionized using the electrospray interface in positive ion mode. Detection of analytes was via tandem mass spectrometry (MS/MS) in the multiple reaction monitoring (MRM) mode.
PK modeling was conducted using a non-compartmental model, extra vascular input for plasma with WinNonLin Software®. Pharmacokinetic parameters estimated in the model include:
Based on the above results, the PK parameters for a single dose of 1000 mg/day of abiraterone acetate were further studied in the 3 subjects who were administered the 1000 mg/day dose and in 3 additional subjects. Two single oral doses (1000 mg) of abiraterone acetate were administered separately, one concomitantly with food of high fat content and one in fasting state. The first single dose was administered on day −9 with PK blood samples being taken at 1, 2, 4, 6, 8, 24, 48 and 72 hours post dose. The second single dose was administered on day −3 with PK blood samples being taken at 1, 2, 4, 6, 8, 24 and 48 hours post dose for analysis.

[1] = human, plasma, oral, 1000 mg, Patient 19, 1000 mg, Fasted
[2] = human, plasma, oral, 1000 mg, Patient 19, 1000 mg, Fed
[3] = human, plasma, oral, 1000 mg, Patient 19, Fasted
[4] = human, plasma, oral, 1000 mg, Patient 19, Fed
[5] = human, plasma, oral, 1000 mg, Patient 20, 1000 mg, Fasted
[6] = human, plasma, oral, 1000 mg, Patient 20, 1000 mg, Fed
[7] = human, plasma, oral, 1000 mg, Patient 20, Fasted
[8] = human, plasma, oral, 1000 mg, Patient 20, Fed
[9] = human, plasma, oral, 1000 mg, Patient 21, 1000 mg, Fasted
[10] = human, plasma, oral, 1000 mg, Patient 21, 1000 mg, Fed
[11] = human, plasma, oral, 1000 mg, Patient 21, Fasted
[12] = human, plasma, oral, 1000 mg, Patient 21, Fed
[13] = human, plasma, po, 1000 mg, mean, 1000 mg single oral dose, Fasted
[14] = human, plasma, po, 1000 mg, mean, 1000 mg single oral dose, Fed
[15] = mean, 1000 mg single oral dose, Fasted
[16] = mean, 1000 mg single oral dose, Fed

C[C@]12CC[C@H](O)CC1=CC[C@@H]1[C@@H]2CC[C@]2(C)C(c3cccnc3)=CC[C@@H]12 [Abiraterone]
concentration at 4.033 hr (human, plasma, oral, 1000 mg, Patient 15, Fed, sample time 4.033 hr): 484 nM
concentration at 6.083 hr (human, plasma, oral, 1000 mg, Patient 15, Fed, sample time 6.083 hr): 1120 nM
concentration at 8.067 hr (human, plasma, oral, 1000 mg, Patient 15, Fed, sample time 8.067 hr): 512 nM
concentration at 24.05 hr (human, plasma, oral, 1000 mg, Patient 15, Fed, sample time 24.050 hr): 84.3 nM
concentration at 46.05 hr (human, plasma, oral, 1000 mg, Patient 15, Fed, sample time 46.050 hr): 18.1 nM
clearance [1]: 12200 mL/min
Vd/F [1]: 8490 L
clearance [2]: 4900 mL/min
Vd/F [2]: 4250 L
AUC(0-inf) [3]: 3.91 µM·h
AUC(0-t) [3]: 3.8 µM·h
Cmax [3]: 432 nM
Tmax [3]: 6 h
concentration at 1.05 hr (human, plasma, oral, 1000 mg, Patient 19, Fasted, sample time 1.050 hr): 0 nM
concentration at 2.083 hr (human, plasma, oral, 1000 mg, Patient 19, Fasted, sample time 2.083 hr): 71.9 nM
concentration at 4.017 hr (human, plasma, oral, 1000 mg, Patient 19, Fasted, sample time 4.017 hr): 334 nM
concentration at 6 hr (human, plasma, oral, 1000 mg, Patient 19, Fasted, sample time 6.000 hr): 432 nM
concentration at 8.017 hr (human, plasma, oral, 1000 mg, Patient 19, Fasted, sample time 8.017 hr): 177 nM
concentration at 24.067 hr (human, plasma, oral, 1000 mg, Patient 19, Fasted, sample time 24.067 hr): 21.6 nM
concentration at 48.1 hr (human, plasma, oral, 1000 mg, Patient 19, Fasted, sample time 48.100 hr): 9.1 nM
AUC(0-inf) [4]: 9.73 µM·h
AUC(0-t) [4]: 9.47 µM·h
Cmax [4]: 1020 nM
Tmax [4]: 6.13 h
concentration at 0.967 hr (human, plasma, oral, 1000 mg, Patient 19, Fed, sample time 0.967 hr): 0 nM
concentration at 2.2 hr (human, plasma, oral, 1000 mg, Patient 19, Fed, sample time 2.200 hr): 466 nM
concentration at 3.933 hr (human, plasma, oral, 1000 mg, Patient 19, Fed, sample time 3.933 hr): 973 nM
concentration at 6.133 hr (human, plasma, oral, 1000 mg, Patient 19, Fed, sample time 6.133 hr): 1020 nM
concentration at 8 hr (human, plasma, oral, 1000 mg, Patient 19, Fed, sample time 8.000 hr): 344 nM
concentration at 23.717 hr (human, plasma, oral, 1000 mg, Patient 19, Fed, sample time 23.717 hr): 63.6 nM
concentration at 49.3 hr (human, plasma, oral, 1000 mg, Patient 19, Fed, sample time 49.300 hr): 18 nM
clearance [5]: 3680 mL/min
Vd/F [5]: 4880 L
clearance [6]: 2030 mL/min
Vd/F [6]: 3210 L
AUC(0-inf) [7]: 13 µM·h
AUC(0-t) [7]: 12.1 µM·h
Cmax [7]: 1700 nM
Tmax [7]: 2.27 h
concentration at 1.017 h [7]: 58.5 nM
concentration at 2.267 h (human, plasma, oral, 1000 mg, Patient 20, Fasted, sample time 2.267): 1700 nM
concentration at 3.833 h (human, plasma, oral, 1000 mg, Patient 20, Fasted, sample time 3.833): 1270 nM
concentration at 6 h [7]: 976 nM
concentration at 7.917 h (human, plasma, oral, 1000 mg, Patient 20, Fasted, sample time 7.917): 256 nM
concentration at 24.283 h (human, plasma, oral, 1000 mg, Patient 20, Fasted, sample time 24.283): 118 nM
concentration at 48.417 h (human, plasma, oral, 1000 mg, Patient 20, Fasted, sample time 48.417): 40.8 nM
AUC(0-inf) [8]: 23.5 µM·h
AUC(0-t) [8]: 22.8 µM·h
Cmax [8]: 1580 nM
Tmax [8]: 8.03 h
concentration at 1.017 h [8]: 32.2 nM
concentration at 2 h [8]: 201 nM
concentration at 4 h [8]: 422 nM
concentration at 6 h [8]: 1400 nM
concentration at 8.033 h [8]: 1580 nM
concentration at 24 h [8]: 152 nM
concentration at 47.517 h (human, plasma, oral, 1000 mg, Patient 20, Fed, sample time 47.517): 55.4 nM
concentration at 71.333 h (human, plasma, oral, 1000 mg, Patient 20, Fed, sample time 71.333): 25.3 nM
clearance [9]: 6610 mL/min
Vd/F [9]: 7190 L
clearance [10]: 6180 mL/min
Vd/F [10]: 5180 L
AUC(0-inf) [11]: 7.21 µM·h
AUC(0-t) [11]: 6.93 µM·h
Cmax [11]: 648 nM
Tmax [11]: 2.17 h
concentration at 1 h (human, plasma, oral, 1000 mg, Patient 21, Fasted, sample time 1.000): 414 nM
concentration at 2.167 h (human, plasma, oral, 1000 mg, Patient 21, Fasted, sample time 2.167): 648 nM
concentration at 4.15 h (human, plasma, oral, 1000 mg, Patient 21, Fasted, sample time 4.150): 360 nM
concentration at 6.117 h (human, plasma, oral, 1000 mg, Patient 21, Fasted, sample time 6.117): 396 nM
concentration at 8.05 h (human, plasma, oral, 1000 mg, Patient 21, Fasted, sample time 8.050): 231 nM
concentration at 24.333 h (human, plasma, oral, 1000 mg, Patient 21, Fasted, sample time 24.333): 65.5 nM
concentration at 48.083 h [11]: 16.4 nM
concentration at 71.7 h (human, plasma, oral, 1000 mg, Patient 21, Fasted, sample time 71.700): 15.2 nM
AUC(0-inf) [12]: 7.71 µM·h
AUC(0-t) [12]: 7.45 µM·h
Cmax [12]: 1280 nM
Tmax [12]: 6 h
concentration at 1.167 h (human, plasma, oral, 1000 mg, Patient 21, Fed, sample time 1.167): 17.3 nM
concentration at 2 h [12]: 64.3 nM
concentration at 4 h [12]: 102 nM
concentration at 6 h [12]: 1280 nM
concentration at 8.033 h [12]: 372 nM
concentration at 24 h [12]: 49.3 nM
concentration at 48.083 h [12]: 18.9 nM
AUC(0-inf) [13]: 5.32 µM·h
AUC(0-t) [13]: 5.03 µM·h
Cmax [13]: 659 nM
Tmax [13]: 3.09 h
Vd/F [13]: 10100 L
AUC(0-inf) [14]: 12.4 µM·h
AUC(0-t) [14]: 12.1 µM·h
Cmax [14]: 1400 nM
Tmax [14]: 5.21 h
Vd/F [14]: 3800 L
Cl F obs [15]: 861.6 L/h
HL [15]: 9.9 h
Cl F obs [16]: 260.2 L/h
HL [16]: 10.9 h
effect of food on drug levels (patient 21): negligible
difference in mean drug levels between the dosing regimes (fed vs fasted) (previously (before extended cohort)): up to a four fold difference
